Reference: article PMC10935199, “Rosmarinic Acid Present in Lepechinia floribunda and Lepechinia meyenii as a Potent Inhibitor of the Adenylyl Cyclase gNC1 from Giardia lamblia” (Plants, 2024)

Biological target: T1, adenylyl cyclase gNC1 (Giardia nucleotidyl cyclase 1)
T1 construct: catalytic domain of gNC1 (construct gNC1-301)
Experiment: adenylyl cyclase assay on enriched gNC1-301, cAMP by radiobinding protein assay; ATP kinetics
Type: biochemical, Giardia intestinalis

O=C(/C=C/c1ccc(O)c(O)c1)O[C@H](Cc1ccc(O)c(O)c1)C(=O)O [compound 3, rosmarinic acid]
IC50: 10.1 ± 1.3 µM
